pIC50: −log10 of the molar value. Structures can show the parent of a compound that is named as a salt.
System: not given
Assay: not given
Settings: not given

melting point [°C]	Structure (SMILES)
203.8 to 205.7	CN1N(CCC(C)(C)C)C(=O)C(C2=NS(=O)(=O)c3cc(NS(C)(=O)=O)ccc3N2)=C(O)C12CCCC2 (as salt: trifluoroacetic acid salt) [Example 5, N-{3-[7-(3,3-Dimethyl-butyl)-10-hydroxy-6-methyl-8-oxo-6,7-diaza-spiro[4.5]dec-9-en-9-yl]-1,1-dioxo-1,4-dihydro-1λ^6-benzo[1,2,4]thiadiazin-7-yl}-methanesulfonamide]

Target: NS5B polymerase (Hepatitis C virus genotype 1b, UniProt P26663)
Assay: biochemical
Settings: NS5B polymerase inhibition; 20 nM enzyme, 75 min at 28° C.
Protocol: Compounds were tested for HCV polymerase inhibition. Assays were performed in a 96-well streptavidin-coated FlashPlate using 20 nM enzyme, 0.5 μCi of [α-^33P]GTP, 0.6 μM GTP, and 250 nM 5′biotinylated oligo (rG13)/poly rC in 20 mM Tris-HCl, pH 7.5, 5 mM MgCl2, 5 mM dithiothreitol, 0.1 g/L bovine serum albumin, and 100 U/mL RNAse inhibitor. The reaction was stopped by aspiration after 75 min at 28° C. and the plate was washed several times. After washing and drying the plate, incorporated radioactivity was counted using a Microbeta scintillation counter. IC50 values were calculated relative to the uninhibited control and inhibition data were fitted to a 4-parameter IC50 equation.

NS5B polymerase, sequence (P26663 2420-3010): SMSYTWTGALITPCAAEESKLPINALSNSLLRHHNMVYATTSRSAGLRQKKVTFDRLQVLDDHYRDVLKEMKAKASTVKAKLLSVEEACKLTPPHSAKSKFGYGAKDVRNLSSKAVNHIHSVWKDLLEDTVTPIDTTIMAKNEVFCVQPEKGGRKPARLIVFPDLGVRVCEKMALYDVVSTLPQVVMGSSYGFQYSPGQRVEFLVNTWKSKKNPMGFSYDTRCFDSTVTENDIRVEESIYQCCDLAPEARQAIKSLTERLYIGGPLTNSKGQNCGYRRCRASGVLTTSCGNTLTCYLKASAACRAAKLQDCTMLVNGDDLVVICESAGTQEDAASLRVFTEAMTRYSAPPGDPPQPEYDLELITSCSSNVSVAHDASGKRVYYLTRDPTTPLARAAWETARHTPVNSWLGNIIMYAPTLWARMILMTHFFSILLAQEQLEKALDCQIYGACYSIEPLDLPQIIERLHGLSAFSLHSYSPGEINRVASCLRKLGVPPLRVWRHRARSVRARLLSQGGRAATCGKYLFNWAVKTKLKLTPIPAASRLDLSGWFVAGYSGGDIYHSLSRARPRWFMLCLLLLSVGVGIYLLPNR

Structure (SMILES)	pIC50
CS(=O)(=O)Nc1ccc2c(c1)S(=O)(=O)N=C(C1=C(O)C3CC4CCCC4N3N(C3CCCCC3)C1=O)N2 (single isomer, unassigned) [10 Isomer 1]	5.52 to 6.70
CC(C)(C)CCN1C(=O)C(C2=NS(=O)(=O)c3cc(NS(C)(=O)=O)ccc3N2)=C(O)C2(C)CCCN12 (stereo not drawn) [Example 4, N-{3-[1-(3,3-Dimethyl-butyl)-4-hydroxy-4a-methyl-2-oxo-1,2,4a,5,6,7-hexahydro-pyrrolo[1,2-b]pyridazin-3-yl]-1,1-dioxo-1,4-dihydro-1λ^6-benzo[1,2,4]thiadiazin-7-yl}-methanesulfonamide]	6.70 to 7.70
CN1N(CCC(C)(C)C)C(=O)C(C2=NS(=O)(=O)c3cc(NS(C)(=O)=O)ccc3N2)=C(O)C12CCCC2 [Example 5, N-{3-[7-(3,3-Dimethyl-butyl)-10-hydroxy-6-methyl-8-oxo-6,7-diaza-spiro[4.5]dec-9-en-9-yl]-1,1-dioxo-1,4-dihydro-1λ^6-benzo[1,2,4]thiadiazin-7-yl}-methanesulfonamide]	5.52 to 6.70
CS(=O)(=O)Nc1ccc2c(c1)S(=O)(=O)N=C(C1=C(O)C3C4CCC(C4)N3N(Cc3ccc(F)cc3)C1=O)N2 (stereo not drawn) [Example 9, N-{3-[3-(4-Fluoro-benzyl)-6-hydroxy-4-oxo-2,3-diaza-tricyclo[6.2.1.0^2,7]undec-5-en-5-yl]-1,1-dioxo-1,4-dihydro-1λ^6-benzo[1,2,4]thiadiazin-7-yl}-methanesulfonamide]	> 7.70
CS(=O)(=O)Nc1ccc2c(c1)S(=O)(=O)N=C(C1=C(O)[C@@H]3C4CCC(CC4)N3N(Cc3ccc(F)cc3)C1=O)N2 [Example 11, (7S)-N-{3-[3-(4-Fluoro-benzyl)-6-hydroxy-4-oxo-2,3-diaza-tricyclo[6.2.2.0^2,7]dodec-5-en-5-yl]-1,1-dioxo-1,4-dihydro-1λ^6-benzo[1,2,4]thiadiazin-7-yl}-methanesulfonamide]	6.70 to 7.70
CS(=O)(=O)Nc1ccc2c(c1)S(=O)(=O)N=C(C1=C(O)[C@]34C[C@H]3CCN4N(Cc3ccc(F)cc3)C1=O)N2 [Example 12, (1aR,7aS)-N-{3-[4-(4-Fluoro-benzyl)-7-hydroxy-5-oxo-1,1a,2,3,4,5-hexahydro-3a,4-diaza-cyclopropa[c]inden-6-yl]-1,1-dioxo-1,4-dihydro-1λ^6-benzo[1,2,4]thiadiazin-7-yl}-methanesulfonamide]	6.70 to 7.70

Now from value to molecule:

pIC50	Structure (SMILES)
> 7.70	CS(=O)(=O)Nc1ccc2c(c1)S(=O)(=O)N=C(C1=C(O)C3CCCCN3N(Cc3ccc(F)cc3)C1=O)N2 (stereo not drawn) [Example 1, N-{3-[1-(4-Fluoro-benzyl)-4-hydroxy-2-oxo-2,4a,5,6,7,8-hexahydro-1H-pyrido[1,2-b]pyridazin-3-yl]-1,1-dioxo-1,4-dihydro-1λ^6-benzo[1,2,4]thiadiazin-7-yl}-methanesulfonamide]
6.70 to 7.70	CC(C)(C)CCN1C(=O)C(C2=NS(=O)(=O)c3cc(NS(C)(=O)=O)ccc3N2)=C(O)C2CCCCN21 (stereo not drawn) [Example 2, N-{3-[1-(3,3-Dimethyl-butyl)-4-hydroxy-2-oxo-2,4a,5,6,7,8-hexahydro-1H-pyrido[1,2-b]pyridazin-3-yl]-1,1-dioxo-1,4-dihydro-1λ^6-benzo[1,2,4]thiadiazin-7-yl}-methanesulfonamide]
> 7.70	CC(C)(C)CCN1C(=O)C(C2=NS(=O)(=O)c3cc(NS(C)(=O)=O)ccc3N2)=C(O)C2CCCN21 (stereo not drawn) [Example 3, N-{3-[1-(3,3-Dimethyl-butyl)-4-hydroxy-2-oxo-1,2,4a,5,6,7-hexahydro-pyrrolo[1,2-b]pyridazin-3-yl]-1,1-dioxo-1,4-dihydro-1λ^6-benzo[1,2,4]thiadiazin-7-yl}-methanesulfonamide]
> 7.70	CC(C)CCN1C(=O)C(C2=NS(=O)(=O)c3cc(NS(C)(=O)=O)ccc3N2)=C(O)C2CCCN21 (stereo not drawn) [Example 6, N-{3-[4-Hydroxy-1-(3-methyl-butyl)-2-oxo-1,2,4a,5,6,7-hexahydro-pyrrolo[1,2-b]pyridazin-3-yl]-1,1-dioxo-1,4-dihydro-1λ^6-benzo[1,2,4]thiadiazin-7-yl}-methanesulfonamide]
> 7.70	CS(=O)(=O)Nc1ccc2c(c1)S(=O)(=O)N=C(C1=C(O)C3CCCN3N(Cc3ccc(F)cc3)C1=O)N2 (stereo not drawn) [Example 7, N-{3-[1-(4-Fluoro-benzyl)-4-hydroxy-2-oxo-1,2,4a,5,6,7-hexahydro-pyrrolo[1,2-b]pyridazin-3-yl]-1,1-dioxo-1,4-dihydro-1λ^6-benzo[1,2,4]thiadiazin-7-yl}-methanesulfonamide]

— patent publication US20080214529A1, “SATURATED FUSED [1,2-b]PYRIDAZINONE COMPOUNDS” (priority 2006, published 2008)
